Measured values from the NIST ThermoML archive (doi:10.1016/j.jct.2007.09.011).

Tests used:
[1] = xn = mol fraction of the nth substance listed; conditions: 101 kPa, Liquid
[2] = refractive index (Na D-line) (dimensionless); xn = mol fraction of the nth substance listed; conditions: 298.15 K, 101 kPa, Liquid
[3] = 101 kPa, Liquid
[4] = refractive index (Na D-line) (dimensionless); conditions: 298.15 K; 101.33 kPa; Liquid

COCCOCCO [2-(2-methoxyethoxy)ethanol] + CCCCCCCC[n+]1ccn(C)c1.F[B-](F)(F)F
mass density [kg/m3], [1]
Conditions | 298.15 K | 308.15 K | 318.15 K
x2 = 0 | 1014.87 | 1005.99 | –
x2 = 0.0088 | 1017.27 | 1008.44 | 999.55
x2 = 0.0165 | 1019.28 | 1010.49 | 1001.65
x2 = 0.0745 | 1032.37 | 1023.86 | 1015.33
x2 = 0.1611 | 1046.73 | 1038.56 | 1030.36
x2 = 0.2555 | 1058.05 | 1050.15 | 1042.23
x2 = 0.3459 | 1066.48 | 1058.76 | 1051.05
x2 = 0.4603 | 1075.27 | 1067.73 | 1060.25
x2 = 0.6468 | 1086.77 | 1079.5 | 1072.31
x2 = 0.8198 | 1094.83 | 1087.77 | 1080.74
x2 = 0.9227 | 1098.58 | 1091.61 | 1084.65
x2 = 0.9912 | 1100.8 | 1093.85 | 1086.95

[2]
Conditions | refractive index
x2 = 0 | 1.4242
x2 = 0.0088 | 1.4227
x2 = 0.0165 | 1.4251
x2 = 0.0745 | 1.4271
x2 = 0.1611 | 1.4288
x2 = 0.2555 | 1.4298
x2 = 0.3459 | 1.4304
x2 = 0.4603 | 1.4308
x2 = 0.6468 | 1.4312
x2 = 0.8198 | 1.4314
x2 = 0.9227 | 1.4317
x2 = 0.9912 | 1.4318

COCCOCCOCCO [2-[2-(2-methoxyethoxy)ethoxy]ethanol] + CCCCCCCC[n+]1ccn(C)c1.F[B-](F)(F)F
mass density [kg/m3], [1]
Conditions | 298.15 K | 308.15 K | 318.15 K
x2 = 0 | 1044.91 | 1036.11 | 1027.28
x2 = 0.0122 | 1046.7 | 1037.94 | 1029.17
x2 = 0.0223 | 1048.13 | 1039.41 | 1030.69
x2 = 0.0994 | 1057.7 | 1049.21 | 1040.84
x2 = 0.2073 | 1067.89 | 1059.71 | 1051.67
x2 = 0.3192 | 1075.71 | 1067.81 | 1060
x2 = 0.42 | 1081.2 | 1073.51 | 1065.88
x2 = 0.5301 | 1086.14 | 1078.64 | 1071.18
x2 = 0.7153 | 1093.01 | 1085.74 | 1078.58
x2 = 0.8449 | 1097.08 | 1089.95 | 1082.96
x2 = 0.9395 | 1099.66 | 1092.63 | 1085.72
x2 = 0.992 | 1100.9 | 1093.94 | 1087.05

[2]
Conditions | refractive index
x2 = 0 | 1.4362
x2 = 0.0122 | 1.4364
x2 = 0.0223 | 1.4366
x2 = 0.0994 | 1.4372
x2 = 0.2073 | 1.4373
x2 = 0.3192 | 1.4369
x2 = 0.42 | 1.4361
x2 = 0.5301 | 1.4352
x2 = 0.7153 | 1.4334
x2 = 0.8449 | 1.4325
x2 = 0.9395 | 1.4321
x2 = 0.992 | 1.432

CCCCCCCC[n+]1ccn(C)c1.F[B-](F)(F)F [1-methyl-3-octylimidazolium tetrafluoroborate] + COCCOCCOCCO
[1], x1 = 1
Conditions | mass density [kg/m3]
298.15 K | 1101.08
308.15 K | 1094.13
318.15 K | 1087.24

Conditions | refractive index
[2], x1 = 1 | 1.4319

CCCCCCCC[n+]1ccn(C)c1.F[B-](F)(F)F [1-methyl-3-octylimidazolium tetrafluoroborate]
[3]
Conditions | mass density [kg/m3]
298.15 K | 1101.08
308.15 K | 1094.13
318.15 K | 1087.24

Conditions | refractive index
[4] | 1.4319

COCCO [2-methoxyethan-1-ol] + CCCCCCCC[n+]1ccn(C)c1.F[B-](F)(F)F
[1], x2 = 0
Conditions | mass density [kg/m3]
298.15 K | 960.05
308.15 K | 950.81
318.15 K | 941.45

Conditions | refractive index
[2], x2 = 0 | 1.4004
